Experimental data reported in PMC6199744, “Development of Chemical Proteomics for the Folateome and Analysis of the Kinetoplastid Folateome” (ACS Infectious Diseases, 2018).
Where two headings read alike, the source gives them in different places.

Legend:
Type in all cases: binding
[1] = target: T1, HeLa cell extract proteins (Homo sapiens, UniProt Q16543)
T1 construct: endogenous in cells; host or cells: HeLa cell extract
T1 sequence (Q16543 1-378): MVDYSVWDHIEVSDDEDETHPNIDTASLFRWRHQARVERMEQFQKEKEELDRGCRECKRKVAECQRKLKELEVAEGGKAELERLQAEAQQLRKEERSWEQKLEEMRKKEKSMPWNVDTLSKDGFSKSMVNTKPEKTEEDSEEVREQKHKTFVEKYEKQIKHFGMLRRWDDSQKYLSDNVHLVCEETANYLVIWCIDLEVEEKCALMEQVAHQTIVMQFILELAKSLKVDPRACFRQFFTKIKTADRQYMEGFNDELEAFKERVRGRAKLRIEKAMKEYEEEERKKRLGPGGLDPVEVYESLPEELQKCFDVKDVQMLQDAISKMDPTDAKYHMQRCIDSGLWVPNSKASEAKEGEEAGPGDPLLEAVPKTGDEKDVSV

[2] = target: T2, HeLa cell extract proteins (Homo sapiens, UniProt Q9H9T3)
T2 construct: endogenous in cells; host or cells: HeLa cell extract
T2 sequence (Q9H9T3 1-547): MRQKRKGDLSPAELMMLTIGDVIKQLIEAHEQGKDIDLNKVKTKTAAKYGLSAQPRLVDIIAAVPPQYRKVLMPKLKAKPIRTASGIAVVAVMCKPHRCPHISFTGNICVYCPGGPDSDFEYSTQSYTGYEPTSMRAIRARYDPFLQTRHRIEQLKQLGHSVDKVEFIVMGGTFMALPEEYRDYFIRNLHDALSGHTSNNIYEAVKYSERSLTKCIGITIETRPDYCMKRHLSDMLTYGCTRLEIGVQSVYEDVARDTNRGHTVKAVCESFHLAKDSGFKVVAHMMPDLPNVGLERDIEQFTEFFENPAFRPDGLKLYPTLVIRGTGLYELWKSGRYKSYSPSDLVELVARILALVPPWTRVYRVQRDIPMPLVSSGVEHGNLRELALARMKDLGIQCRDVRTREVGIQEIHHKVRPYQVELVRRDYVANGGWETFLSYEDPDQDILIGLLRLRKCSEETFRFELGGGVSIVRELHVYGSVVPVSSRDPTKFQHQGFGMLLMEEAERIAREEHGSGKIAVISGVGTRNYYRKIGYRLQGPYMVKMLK

[3] = target: T3, HeLa cell extract proteins (Homo sapiens, UniProt O00505)
T3 construct: endogenous in cells; host or cells: HeLa cell extract
T3 sequence (O00505 1-521): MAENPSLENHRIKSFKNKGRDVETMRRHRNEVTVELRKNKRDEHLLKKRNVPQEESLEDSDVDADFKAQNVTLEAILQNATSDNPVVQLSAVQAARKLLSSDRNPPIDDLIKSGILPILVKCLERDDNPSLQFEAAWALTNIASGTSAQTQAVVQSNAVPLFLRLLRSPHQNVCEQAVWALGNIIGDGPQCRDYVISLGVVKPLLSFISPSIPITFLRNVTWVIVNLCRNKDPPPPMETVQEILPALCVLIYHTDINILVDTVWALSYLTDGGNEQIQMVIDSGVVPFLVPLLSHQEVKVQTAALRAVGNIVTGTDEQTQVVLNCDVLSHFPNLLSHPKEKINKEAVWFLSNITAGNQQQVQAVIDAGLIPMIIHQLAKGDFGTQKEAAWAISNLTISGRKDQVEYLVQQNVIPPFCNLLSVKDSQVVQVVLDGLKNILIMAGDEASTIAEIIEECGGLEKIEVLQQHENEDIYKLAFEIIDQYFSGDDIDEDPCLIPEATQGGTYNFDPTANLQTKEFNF

[4] = target: T4, HeLa cell extract proteins (Homo sapiens, UniProt P14314); settings: HeLa; protein PRKCSH (CDNA FLJ59211, HIGHLY SIMILAR TO GLUCOSIDASE 2 SUBUNIT BETA.)
T4 construct: endogenous in cells; host or cells: HeLa cell extract
T4 sequence (P14314 15-528): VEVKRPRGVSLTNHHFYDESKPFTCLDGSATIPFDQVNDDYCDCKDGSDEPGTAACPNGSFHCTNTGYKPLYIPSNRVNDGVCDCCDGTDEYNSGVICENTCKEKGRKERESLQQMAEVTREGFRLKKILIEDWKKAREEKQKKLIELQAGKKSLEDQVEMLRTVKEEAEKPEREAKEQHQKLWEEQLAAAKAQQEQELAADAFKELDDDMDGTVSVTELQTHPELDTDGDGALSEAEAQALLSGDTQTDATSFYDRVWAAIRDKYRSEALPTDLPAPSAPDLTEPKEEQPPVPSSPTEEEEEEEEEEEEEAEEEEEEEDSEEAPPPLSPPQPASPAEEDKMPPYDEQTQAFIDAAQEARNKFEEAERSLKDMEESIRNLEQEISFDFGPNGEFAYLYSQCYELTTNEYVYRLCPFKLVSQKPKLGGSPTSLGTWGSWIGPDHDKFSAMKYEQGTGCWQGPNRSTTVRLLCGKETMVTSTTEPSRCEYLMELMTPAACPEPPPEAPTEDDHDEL

[5] = target: T5, HeLa cell extract proteins (Homo sapiens, UniProt P46976); settings: protein GYG1; HeLa
T5 construct: endogenous in cells; host or cells: HeLa cell extract
T5 sequence (P46976 1-350): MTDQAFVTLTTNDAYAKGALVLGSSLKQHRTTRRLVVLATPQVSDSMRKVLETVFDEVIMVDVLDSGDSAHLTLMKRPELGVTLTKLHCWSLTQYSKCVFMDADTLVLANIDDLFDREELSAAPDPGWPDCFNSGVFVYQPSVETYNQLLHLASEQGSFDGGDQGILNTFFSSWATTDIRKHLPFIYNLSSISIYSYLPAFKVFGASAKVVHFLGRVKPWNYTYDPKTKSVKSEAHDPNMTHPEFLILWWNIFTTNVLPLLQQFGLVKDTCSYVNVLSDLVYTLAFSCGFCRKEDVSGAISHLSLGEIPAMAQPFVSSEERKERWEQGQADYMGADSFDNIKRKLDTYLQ

| SMILES | fold changes relative to vehicle control ([1]; protein CDC37, HeLa) | fold changes relative to vehicle control ([2]; protein ELP3, HeLa) | fold changes relative to vehicle control ([3]; HeLa, captured protein KPNA3) | fold changes relative to vehicle control [4] [fold] | fold changes relative to vehicle control [5] | further results |
| --- | --- | --- | --- | --- | --- | --- |
| Nc1nc2c(c(=O)[nH]1)N(C=O)C(CNc1ccc(C(=O)N[C@@H](CCC(=O)O)C(=O)O)cc1)CN2 (stereo partly drawn) [LEU, leucovorin] | 1.13 | 0.88 | 0.9 |  |  |  |
| NCCCNc1ccc(C(=O)NC(CCC(=O)O)C(=O)O)cc1 (stereo not drawn) [compound 7] | 1.14 | 0.9 | 0.87 |  |  |  |
| CCCCCCOc1cccc(Cc2cnc(N)nc2N)c1 [compound 2] |  |  |  | 2.8 | 1.31 |  |
| CCCCCCOc1ccc(Cc2cnc(N)nc2N)cc1 [compound 1] |  |  |  | 1.76 | 1.09 |  |
| Nc1nc2cccc(-c3ccccc3)c2n1Cc1ccc(Cl)c(Cl)c1 [compound 3] |  |  |  | 1.26 | 0.95 |  |
| NCCOCCOCC(=O)Nc1nc2ncc(CNc3ccc(C(=O)NC(CCC(=O)O)C(=O)O)cc3)nc2c(=O)[nH]1 (stereo not drawn) [compound 6] | 1.21 | 0.91 | 1.02 |  |  |  |
| Nc1nc2[nH]cc(CCc3ccc(C(=O)N[C@@H](CCC(=O)O)C(=O)O)cc3)c2c(=O)[nH]1 [PTX, pemetrexed] |  |  |  |  |  | fold changes relative to vehicle control [1]: 1.1; fold changes relative to vehicle control [2]: 0.72; fold changes relative to vehicle control [3]: 0.9 |
